Where a name gives a salt, the structure may show the parent alone.
Each compound was assayed against MCH receptor (Homo sapiens, UniProt Q99705) (assay: High throughput functional screening FLIPR/FDSS6000 (intracellular Ca2+ evoked by MCH)). Settings: FLIPR/FDSS, antagonist activity vs 50 nM MCH; class by percent of control at 10^−7 M or IC50; table after the classification; read-out: class.
Type: cell-based
Description: High Throughput Functional Screening: FLIPR™
This assay utilized a non-endogenous, constitutively active version of the MCH receptor.
The concentration of free Ca^2+ in the cytosol of any cell is extremely low, whereas its concentration in the extracellular fluid and endoplasmic reticulum (ER) is very high. Thus, there is a large gradient tending to drive Ca^2+ into the cytosol across both the plasma membrane and ER. The FLIPR™ and FDSS6000™ systems (Molecular Devices Corporation, […] Photonics K.K.) are designed to perform functional cell-based assays, such as the measurement of intracellular calcium for high-throughput screening. The measurement of fluorescent is associated with calcium release upon activation of the Gq-coupled receptors.
Fluorometric Imaging Plate Reader system was used to allow for rapid, kinetic measurements of intracellular fluorescence in 96 well microplates (or 384 well microplates). Simultaneous measurements of fluorescence in all wells can be made by FLIPR or FDSS6000™ every second with high sensitivity and precision. These systems are ideal for measuring cell-based functional assays such as monitoring the intracellular calcium fluxes that occur within seconds after activation of the Gq coupled receptor.
Briefly, the cells are seeded into 96 well at 5.5×10^4 cells/well with complete culture media (Dulbecco's Modified Eagle Medium with 10% fetal bovine serum, 2 mM L-glutamine, 1 mM sodium pyruvate and 0.5 mg/ml G418, pH 7.4) for the assay next day. On the day of assay, the media is removed and the cells are incubated with 100 μl of loading buffer (4 μM Fluo4-AM in complete culture media containing 2.5 mM Probenicid, 0.5 mg/ml and 0.2% bovine serum albumin) in 5% CO2 incubator at 37° C. for 1 hr. The loading buffer is removed, and the cells are washed with wash buffer (Hank's Balanced Salt Solution containing 2.5 mM Probenicid, 20 mM HEPES, 0.5 mg/ml and 0.2% bovine serum albumin, pH 7.4)). One hundred fifty μl of wash buffer containing various concentrations of test compound is added to the cells, and the cells are incubated in 5% CO2 incubator at 37° C. for 30 min. […] 530 nm for 290 second. When antagonist activity of compound is tested, 50 nM of MCH is used.
Use of FLIPR™ and FDSS6000™ can be accomplished by following manufacturer's instruction (Molecular Device Corporation and […] Photonics K.K.).

SMILES | IC50
CNc1nc(N[C@H]2CC[C@@H](CNCc3ccc(Br)cc3OC(F)(F)F)CC2)nc2c1CCCC2 [Example 11, N^2-{cis-4-[(4-Bromo-2-trifluoromethoxy-beny)amino-methyl]-cyclobexyl}-N^4-methyl-5,6,7,8-tetrahydro-quinazoline-2,4-diamine dihydrochloride] | < 50 nM
CN(C)c1nc(N[C@H]2CC[C@@H](NCc3ccc(Br)cc3OC(F)(F)F)CC2)nc2c1CCCC2 [Example 13, N^2-[cis-4-(4-Bromo-2-trifluoromethoxy-benzyl)-amino-cyclobexyl]-N^4,N^4-dimethyl-5,6,7,8-tetrahydro-quinazoline-2,4-diamine dihydrochloride] | > 200 nM
CN(C)c1nc(N[C@H]2CC[C@@H](NCCc3ccc(Br)cc3OC(F)(F)F)CC2)nc2c1CCCC2 [Example 14, N^2-{cis-4-[2-(4-Bromo-2-trifluoromethoxy-phenyl)-ethylamino]-cyclohexyl}-N^4,N^4-dimethyl-5,6,7,8-tetrahydro-quinazoline-2,4-diamine dihydrochloride] | < 50 nM
CN(C)c1ccnc(N[C@H]2CC[C@@H](NCc3ccc(Br)cc3OC(F)(F)F)CC2)n1 [Example 17, N^2-[cis-4-(4-Bromo-2-trifluoromethoxy-benzyl)-amino-cyclohexyl]-N^4,N^4-dimethyl-pyrimidin-2,4-diamine dihydrochloride] | 50 to 200 nM
CN(C)c1ccnc(N[C@H]2CC[C@@H](NCCc3ccc(Br)cc3OC(F)(F)F)CC2)n1 [Example 18, N^2-{cis-4-[2-(4-Bromo-2-trifluoromethoxy-phenyl)-ethylamino]-cyclohexyl}-N^4,N^4-dimethyl-pyrimidine-2,4-diamine dihydrochloride] | < 50 nM
O=C(N[C@H]1CC[C@@H](Nc2ccc3ccccc3n2)CC1)c1ccc(F)c(F)c1 [Example 3031, 3,4-Difluoro-N-[cis-4-(quinolin-2-ylamino)-cyclohexyl]-benzamide hydrochloride] | < 50 nM
O=C(N[C@H]1CC[C@@H](Nc2ccc3ccccc3n2)CC1)c1cccnc1Oc1ccccc1 [Example 3032, 2-Phenoxy-N-[cis-4-(quinolin-2-ylamino)-cyclohexyl]-nicotinamide hydrochloride] | < 50 nM
Cc1cccc(C(=O)N[C@H]2CC[C@@H](Nc3ccc4ccccc4n3)CC2)c1 [Example 3033, 3-Methyl-N-[cis-4-(quinolin-2-ylamino)-cyclohexyl]-benzamide hydrochloride] | < 50 nM
O=C(N[C@H]1CC[C@@H](Nc2ccc3ccccc3n2)CC1)c1cccc(Cl)c1 [Example 3035, 3-Chloro-N-[cis-4-(quinolin-2-ylamino)-cyclohexyl]-benzamide hydrochloride] | < 50 nM
O=C(N[C@H]1CC[C@@H](Nc2ccc3ccccc3n2)CC1)c1csc([N+](=O)[O-])c1 [Example 3036, 5-Nitro-thiophene-3-carboxylic acid [cis-4-(quinolin-2-ylamino)-cyclohexyl]-amide hydrochloride] | < 50 nM
O=C(N[C@H]1CC[C@@H](Nc2ccc3ccccc3n2)CC1)c1cccnc1Cl [Example 3037, 2-Chloro-N-[cis-4-(quinolin-2-ylamino)-cyclohexyl]-nicotinamide hydrochloride] | > 200 nM
O=C(N[C@H]1CC[C@@H](Nc2ccc3ccccc3n2)CC1)c1ccc(F)c(Cl)c1 [Example 3038, 3-Chloro-4-fluoro-N-[cis-4-(quinolin-2-ylamino)-cyclohexyl]-benzamide hydrochloride] | < 50 nM
COc1cc(OC)cc(C(=O)N[C@H]2CC[C@@H](Nc3ccc4ccccc4n3)CC2)c1 [Example 3039, 3,5-Dimethoxy-N-[cis-4-(quinolin-2-ylamino)-cyclohexyl]-benzamide hydrochloride] | < 50 nM
O=C(N[C@H]1CC[C@@H](Nc2ccc3ccccc3n2)CC1)c1ccc(Cl)c(Cl)c1 [Example 3040, 3,4-Dichloro-N-[cis-4-(quinolin-2-ylamino)-cyclohexyl]-benzamide hydrochloride] | < 50 nM
O=C(N[C@H]1CC[C@@H](Nc2ccc3ccccc3n2)CC1)c1ccc2nonc2c1 [Example 3041, Benzo[2,1,3]oxadiazole-5-carboxylic acid-[cis-4-(quinolin-2-ylamino)-cyclohexyl]-amide hydrochloride] | < 50 nM
Cn1cc([N+](=O)[O-])cc1C(=O)N[C@H]1CC[C@@H](Nc2ccc3ccccc3n2)CC1 [Example 3042, 1-Methyl-4-nitro-1H-pyrrole-2-carboxylic acid [cis-4-(quinolin-2-ylamino)-cyclohexyl]-amide hydrochloride] | < 50 nM
O=C(N[C@H]1CC[C@@H](Nc2ccc3ccccc3n2)CC1)C1c2ccccc2Oc2ccccc21 [Example 3043, 9H-Xanthene-9-carboxylic acid [cis-4-(quinolin-2-ylamino)-cyclohexyl]-amide hydrochloride] | < 50 nM
O=C(N[C@H]1CC[C@@H](Nc2ccc3ccccc3n2)CC1)c1ccc(-c2ccc(Cl)cc2)o1 [Example 3044, 5-(4-Chloro-phenyl)-furan-2-carboxylic acid [cis-4-(quinolin-2-ylamino)-cyclohexyl]-amide hydrochloride] | 50 to 200 nM
O=C(N[C@H]1CC[C@@H](Nc2ccc3ccccc3n2)CC1)c1cccc([N+](=O)[O-])c1 [Example 3045, 3-Nitro-N-[cis-4-(quinolin-2-ylamino)-cyclohexyl]-benzamide hydrochloride] | < 50 nM
Cc1cc(C(=O)N[C@H]2CC[C@@H](Nc3ccc4ccccc4n3)CC2)ccc1F [Example 3046, 4-Fluoro-3-methyl-N-[cis-4-(quinolin-2-ylamino)-cyclohexyl]-benzamide hydrochloride] | < 50 nM
O=C(N[C@H]1CC[C@@H](Nc2ccc3ccccc3n2)CC1)c1cccc(Br)c1 [Example 3047, 3-Bromo-N-[cis-4-(quinolin-2-ylamino)-cyclohexyl]-benzamide hydrochloride] | < 50 nM
O=C(N[C@H]1CC[C@@H](Nc2ccc3ccccc3n2)CC1)c1cccnc1Oc1ccccc1Br [Example 3048, 2-(2-Bromophenoxy)-N-[cis-4-(quinolin-2-ylamino)-cyclohexyl]-nicotinamide hydrochloride] | < 50 nM
N#Cc1cccc(C(=O)N[C@H]2CC[C@@H](Nc3ccc4ccccc4n3)CC2)c1 [Example 3049, 3-Cyano-N-[cis-4-(quinolin-2-ylamino)-cyclohexyl]-benzamide hydrochloride] | < 50 nM
O=C(N[C@H]1CC[C@@H](Nc2ccc3ccccc3n2)CC1)c1cccc(C(F)(F)F)c1 [Example 3050, N-[cis-4-(Quinolin-2-ylamino)-cyclohexyl]-3-trifluoromethyl-benzamide hydrochloride] | < 50 nM
Cc1cccc(OCC(=O)N[C@H]2CC[C@@H](Nc3ccc4ccccc4n3)CC2)c1 [Example 3051, N-[cis-4-(Quinolin-2-ylamino)-cyclohexyl]-2-m-tolyloxy-acetamide hydrochloride] | < 50 nM
O=C(N[C@H]1CC[C@@H](Nc2ccc3ccccc3n2)CC1)C(c1ccccc1)c1ccccc1 [Example 3052, 2,2-Diphenyl-N-[cis-4-(quinolin-2-ylamino)-cyclohexyl]-acetamide hydrochloride] | < 50 nM
O=C(N[C@H]1CC[C@@H](Nc2ccc3ccccc3n2)CC1)c1ccc(Br)o1 [Example 3053, 5-Bromo-furan-2-carboxylic acid [cis-4-(quinolin-2-ylamino)-cyclohexyl]-amide hydrochloride] | < 50 nM
O=C(N[C@H]1CC[C@@H](Nc2ccc3ccccc3n2)CC1)c1cccnc1Oc1ccc(F)cc1 [Example 3054, 2-(4-Fluoro-phenoxy)-N-[cis-4-(quinolin-2-ylamino)-cyclohexyl]-nicotinamide hydrochloride] | < 50 nM
O=C(N[C@H]1CC[C@@H](Nc2ccc3ccccc3n2)CC1)c1cccnc1Oc1ccc(F)c(F)c1 [Example 3055, 2-(3,4-Difluoro-phenoxy)-N-[cis-4-(quinolin-2-ylamino)-cyclohexyl]-nicotinamide hydrochloride] | < 50 nM

Same assay, conditions: FLIPR/FDSS, antagonist activity vs 50 nM MCH; representative examples; read-out: IC50

SMILES | IC50
Cc1cnc(N[C@H]2CC[C@@H](NC(=O)c3ccc(F)c(F)c3)CC2)nc1N(C)C [Example 2524, N-(cis-4-{[4-(Dimethylamino)-5-methylpyrimidin-2-yl]amino}cyclohexyl)-3,4-difluorobenzamide hydrochloride] | 2.1 nM
Cc1cccc(C(=O)N[C@H]2CC[C@@H](Nc3nc(C)cc(N(C)C)n3)CC2)c1 [Example 2526, N-(cis-4-{[4-(Dimethylamino)-6-methylpyrimidin-2-yl]amino}cyclohexyl)-3-methylbenzamide trifluoroacetate] | 7.6 nM
